Measured values taken from patent US11046697B2, “Compounds and compositions useful for treating disorders related to NTRK” (BLUEPRINT MEDICINES CORPORATION, priority 2015, dated 2021).
Read-outs that look alike come from different tables or passages of the source.

Experiments:
[1] = test system: KM12 Cliff (G595R) cell line; experiment: NTRK G595R mutant cellular assay (CellTiter-Glo growth inhibition); type: cell-based; conditions: for IC50: 72 hr, CellTiter-Glo
Protocol: (§1) NTRK Wild Type and G595R Mutant Cellular Assays Protocol
(§2) KM12 wild type colon carcinoma cell line harboring the TPM3-NTRK1 fusion protein was obtained from the National Cancer Institute (NCI). This line has been previously shown to be dependent upon the NTRK activity derived from the NTRK fusion protein for growth and survival. […] Cells were first plated in 384-well plates at 1000 cells/well in complete media (10% FBS and 1% pen/strep) and incubated overnight at 37° C. Cells were then dosed with test articles at varying concentrations using the Bravo liquid handling system. […] Each compound was run in duplicate per plate. […] 72 hr after dosing, assay plates were developed using CellTiter-Glo (Promega) and resultant luminescence was read on the Envision plate reader. IC50 determinations were calculated using a 4-parameter curve fitting algorithm

[2] = test system: KM12 wild type colon carcinoma cell line harboring the TPM3-NTRK1 fusion protein; experiment: NTRK wild type cellular assay (CellTiter-Glo growth inhibition); type: cell-based; conditions: for IC50: 72 hr, CellTiter-Glo, read-out: KM12 (WT) IC50
Protocol: as §1, §2

[3] = target: T1, wild type NTRK1 enzyme (Homo sapiens, UniProt P04629); experiment: NTRK1 Wild Type Assay at 1 mM ATP; type: biochemical; conditions: 1 mM ATP; read-out: Enz NTRK1 IC50
T1 construct: purchased BPS Bioscience 40280
T1 sequence (P04629 440-796 limits assumed): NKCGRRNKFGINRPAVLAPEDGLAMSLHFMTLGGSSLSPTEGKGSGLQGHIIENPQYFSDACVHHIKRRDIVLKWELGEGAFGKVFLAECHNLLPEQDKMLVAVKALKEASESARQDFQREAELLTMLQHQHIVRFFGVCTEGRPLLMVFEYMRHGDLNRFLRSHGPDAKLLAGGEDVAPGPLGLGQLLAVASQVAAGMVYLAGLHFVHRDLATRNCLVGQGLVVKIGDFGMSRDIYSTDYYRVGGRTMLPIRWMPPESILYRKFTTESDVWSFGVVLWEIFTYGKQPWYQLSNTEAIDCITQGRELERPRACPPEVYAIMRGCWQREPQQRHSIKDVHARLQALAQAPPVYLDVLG
Protocol: NTRK1 Wild Type Assay at 1 mM ATP
The reaction was stopped by the addition of 70 μL of Stop buffer (100 mM HEPES pH 7.5, 0.015% Brij 35, 35 mM EDTA and 0.2% of Coating Reagent 3 (Caliper Lifesciences)). The plate was then read on a Caliper EZReader 2 (protocol settings: −1.7 psi, upstream voltage −500, downstream voltage −3000, post sample sip 35s).

Compound	IC50 ([2]; Homo sapiens, KM12, 72 h)	IC50 [3]	IC50 [2]	GI50 ([2]; Homo sapiens, KM12, wild-type NTRK fusion cells, read-out: NTRK wt Cellular GI50)	IC50 ([1]; Homo sapiens, KM12, 72 h)	IC50 [1]	GI50 ([1]; Homo sapiens, KM12, G595R mutant NTRK fusion cells)
O=C(NCc1cc(F)ccc1F)c1n[nH]c2ncnc(N[C@@H]3C[C@@H](F)C[C@H]3O)c12 (relative stereo) [Compound 17]	10 to 100 nM	10 to 100 nM			100 to 1000 nM		
O=C(NCc1cc(F)ccc1F)c1n[nH]c2ncnc(N[C@@H]3CC[C@@H](F)[C@H]3O)c12 (relative stereo) [Compound 19]	> 1000 nM	> 1000 nM			> 1000 nM		
O=C(NCc1cc(F)ccc1F)c1n[nH]c2ncnc(N[C@@H]3CCC[C@H]3O)c12 [Compound 1]	10 to 100 nM	10 to 100 nM			10 to 100 nM		
Cc1ccc(F)cc1CNC(=O)c1n[nH]c2ncnc(N[C@@H]3CC[C@@H](O)[C@H]3O)c12 [Compound 2]	100 to 1000 nM	100 to 1000 nM			100 to 1000 nM		
O=C(NCc1cc(F)ccc1F)c1n[nH]c2ncnc(N[C@@H]3[C@H]4C[C@H]4C[C@H]3O)c12 [Compound 3]	> 1000 nM	> 1000 nM			> 1000 nM		
O=C(NCc1cc(F)ccc1F)c1n[nH]c2ncnc(N[C@@H]3C[C@H]4C[C@H]4[C@H]3O)c12 [Compound 4]	> 1000 nM	100 to 1000 nM			> 1000 nM		
CN(Cc1cncc(F)c1)C(=O)c1n[nH]c2ncnc(N[C@@H]3CC[C@@H](O)[C@H]3O)c12 [Compound 5]	100 to 1000 nM	100 to 1000 nM			100 to 1000 nM		
CN(Cc1cc(F)ccc1F)C(=O)c1n[nH]c2ncnc(N[C@@H]3CCC[C@H]3O)c12 [Compound 6]	10 to 100 nM	< 10 nM			10 to 100 nM		
C[C@@H](NC(=O)c1n[nH]c2ncnc(N[C@@H]3CCC[C@H]3O)c12)c1cc(F)ccc1F [Compound 7]	10 to 100 nM	10 to 100 nM			10 to 100 nM		
O=C(NCc1cc(F)ccc1F)c1n[nH]c2ncnc(N[C@@H]3COCC[C@H]3O)c12 [Compound 8]	10 to 100 nM	10 to 100 nM			100 to 1000 nM		
O=C(NCc1cc(F)ccc1F)c1n[nH]c2ncnc(NC3CCC(O)C3O)c12 (stereo not shown) [Compound 9]		10 to 100 nM	10 to 100 nM			100 to 1000 nM	
O=C(NCc1cc(F)ccc1F)c1n[nH]c2ncnc(NC3CCC(O)C3O)c12 (stereo not shown) [Compound 10]		100 to 1000 nM	100 to 1000 nM			> 1000 nM	
O=C(NCc1cc(F)ccc1F)c1n[nH]c2ncnc(N[C@@H]3CCOC[C@H]3O)c12 [Compound 11]	100 to 1000 nM	100 to 1000 nM			100 to 1000 nM		
O=C(NCc1cc(F)ccc1F)c1n[nH]c2ncnc(NC3CC(O)CC3O)c12 (stereo not shown) [Compound 12]	100 to 1000 nM	100 to 1000 nM			> 1000 nM		
O=C(NCc1cc(F)ccc1F)c1n[nH]c2ncnc(NC3CC(O)CC3O)c12 (stereo not shown) [Compound 13]		10 to 100 nM	10 to 100 nM			100 to 1000 nM	
O=C(NCc1cc(F)ccc1F)c1n[nH]c2ncnc(NC3CC(F)CC3O)c12 (stereo not shown) [Compound 14]		100 to 1000 nM	100 to 1000 nM			100 to 1000 nM	
O=C(NCc1cc(F)ccc1F)c1n[nH]c2ncnc(NC3CC(F)CC3O)c12 (stereo not shown) [Compound 15]		100 to 1000 nM	100 to 1000 nM			> 1000 nM	
O=C(NCc1cc(F)ccc1F)c1n[nH]c2ncnc(NC3CC(F)CC3O)c12 (stereo not shown) [Compound 16]		100 to 1000 nM	> 1000 nM			> 1000 nM	
O=C(NCc1cc(F)ccc1F)c1n[nH]c2ncnc(NC3CCC(F)C3O)c12 (stereo not shown) [Compound 18]		100 to 1000 nM	100 to 1000 nM			> 1000 nM	
N#Cc1cc(F)cc(CNC(=O)c2n[nH]c3ncnc(N[C@@H]4CC[C@@H](O)[C@H]4O)c23)c1 [Compound 22]	> 1000 nM	100 to 1000 nM			> 1000 nM		
Cc1ccc(F)cc1CN(C)C(=O)c1n[nH]c2ncnc(NC3CCC(O)C3O)c12 (stereo not shown) [Compound 23]		< 10 nM	10 to 100 nM			10 to 100 nM	
COc1ccc(F)cc1CNC(=O)c1n[nH]c2ncnc(N[C@@H]3COCC[C@H]3O)c12 [Compound 24]	100 to 1000 nM	10 to 100 nM			100 to 1000 nM		
O=C(NCc1cc(F)ccc1F)c1n[nH]c2ncnc(N[C@H]3[C@H](O)[C@H](O)[C@@H]4C[C@@H]43)c12 [Compound 25]	10 to 100 nM	10 to 100 nM			100 to 1000 nM		

Further lines, with some results ahead:

IC50 ([2]; Homo sapiens, KM12, 72 h)	IC50 [3]	IC50 [2]	GI50 ([2]; Homo sapiens, KM12, wild-type NTRK fusion cells, read-out: NTRK wt Cellular GI50)	Compound	IC50 ([1]; Homo sapiens, KM12, 72 h)	IC50 [1]	GI50 ([1]; Homo sapiens, KM12, G595R mutant NTRK fusion cells)
	10 to 100 nM	10 to 100 nM		CCN(Cc1cc(F)ccc1F)C(=O)c1n[nH]c2ncnc(NC3CCCC3O)c12 (stereo not shown) [Compound 26]		100 to 1000 nM	
	< 10 nM	10 to 100 nM		O=C(NC(CO)c1cc(F)ccc1F)c1n[nH]c2ncnc(NC3CCCC3O)c12 (stereo not shown) [Compound 27]		10 to 100 nM	
	< 10 nM	10 to 100 nM		CN(Cc1cc(F)ccc1F)C(=O)c1n[nH]c2ncnc(NC3CCC(O)C3O)c12 (stereo not shown) [Compound 28]		10 to 100 nM	
10 to 100 nM	< 10 nM			CN(Cc1cc(F)ccc1F)C(=O)c1n[nH]c2ncnc(N[C@@H]3COCC[C@H]3O)c12 [Compound 29]	10 to 100 nM		
10 to 100 nM	100 to 1000 nM			C[C@@H](NC(=O)c1n[nH]c2ncnc(N[C@@H]3COCC[C@H]3O)c12)c1cc(F)ccc1F [Compound 30]	100 to 1000 nM		
	100 to 1000 nM	100 to 1000 nM		CC(NC(=O)c1n[nH]c2ncnc(NC3CCOCC3O)c12)c1cc(F)ccc1F (stereo not shown) [Compound 31]		100 to 1000 nM	
100 to 1000 nM	10 to 100 nM			O=C(NCc1cc(F)ccc1F)c1n[nH]c2ncnc(N[C@@H]3CCC[C@@H](O)[C@H]3O)c12 [Compound 32]	100 to 1000 nM		
	10 to 100 nM	10 to 100 nM		CN(Cc1cc(F)cc(F)c1)C(=O)c1n[nH]c2ncnc(NC3CCC(O)C3O)c12 (stereo not shown) [Compound 33]		10 to 100 nM	
	10 to 100 nM	10 to 100 nM		CC(NC(=O)c1n[nH]c2ncnc(NC3CCC(O)C3O)c12)c1cc(F)ccc1F (stereo not shown) [Compound 34]		100 to 1000 nM	
	100 to 1000 nM	100 to 1000 nM		CC(NC(=O)c1n[nH]c2ncnc(NC3CCC(O)C3O)c12)c1cc(F)ccc1F (stereo not shown) [Compound 35]		> 1000 nM	
100 to 1000 nM	10 to 100 nM			O=C(NCc1cc(F)ccc1Cl)c1n[nH]c2ncnc(N[C@@H]3CC[C@@H](O)[C@H]3O)c12 [Compound 36]	100 to 1000 nM		
	10 to 100 nM	100 to 1000 nM		O=C(NCc1cc(F)ccc1Cl)c1n[nH]c2ncnc(N[C@@H]3COCC[C@H]3O)c12 [Compound 37]		100 to 1000 nM	
	100 to 1000 nM	100 to 1000 nM		O=C(NCc1cc(F)cc(Cl)c1)c1n[nH]c2ncnc(NC3CCC(O)C3O)c12 (stereo not shown) [Compound 38]		100 to 1000 nM	
10 to 100 nM	< 10 nM			[2H]C([2H])([2H])N(Cc1cc(F)ccc1F)C(=O)c1n[nH]c2ncnc(N[C@@H]3COCC[C@H]3O)c12 [Compound 39]	10 to 100 nM		
	10 to 100 nM	100 to 1000 nM		O=C(NCc1cc(F)cc(F)c1F)c1n[nH]c2ncnc(N[C@@H]3COCC[C@H]3O)c12 [Compound 40]		100 to 1000 nM	
100 to 1000 nM	10 to 100 nM			O=C(NCc1cc(F)cc(F)c1F)c1n[nH]c2ncnc(N[C@@H]3CC[C@@H](O)[C@H]3O)c12 [Compound 41]	100 to 1000 nM		
	100 to 1000 nM	> 1000 nM		O=C(NCc1cc(F)ccc1F)c1n[nH]c2ncnc(NC3CC(F)(F)CC3O)c12 (stereo not shown) [Compound 42]		> 1000 nM	
	10 to 100 nM	10 to 100 nM		O=C(NCc1cc(F)ccc1F)c1n[nH]c2ncnc(NC3CC(F)(F)CC3O)c12 (stereo not shown) [Compound 43]		100 to 1000 nM	
	10 to 100 nM	10 to 100 nM		CN(Cc1cc(F)cc(C#N)c1)C(=O)c1n[nH]c2ncnc(NC3CCC(O)C3O)c12 (stereo not shown) [Compound 44]		100 to 1000 nM	
< 10 nM	< 10 nM			O=C(c1n[nH]c2ncnc(N[C@@H]3CCC[C@H]3O)c12)N1CCC[C@@H]1c1cc(F)ccc1F [Compound 45, ((R)-2-(2,5-difluorophenyl)pyrrolidin-1-yl)(4-(((1R,2R)-2-hydroxycyclopentyl)amino)-1H-pyrazolo[3,4-d]pyrimidin-3-yl)methanone]	< 10 nM		
	< 10 nM	< 10 nM		O=C(c1n[nH]c2ncnc(NC3CCCC3O)c12)N1CC(F)CC1c1cncc(F)c1 (stereo not shown) [Compound 46]		< 10 nM	
	100 to 1000 nM	100 to 1000 nM		O=C(NC1(c2cc(F)ccc2F)CC1)c1n[nH]c2ncnc(N[C@@H]3COCC[C@H]3O)c12 [Compound 47]		100 to 1000 nM	
10 to 100 nM	10 to 100 nM			COc1cc(F)cc(CN(C)C(=O)c2n[nH]c3ncnc(N[C@@H]4CC[C@@H](O)[C@H]4O)c23)c1 [Compound 48]	100 to 1000 nM		
		10 to 100 nM		O=C(c1n[nH]c2ncnc(NC3CCOCC3O)c12)N1CC(F)CC1c1cc(F)ccc1OC(F)F (stereo not shown) [Compound 238]		10 to 100 nM	
			87 nM	C[C@@H](Oc1cc(-c2cnn(C3CCNCC3)c2)cnc1N)c1c(Cl)ccc(F)c1Cl [Crizotinib, crizotinib, reference compound]			9 µM
